Reference: ChEMBL document CHEMBL1221401, “Antiproliferative compounds from Pongamiopsis pervilleana from the Madagascar Dry Forest” (J Nat Prod, 2010)

Legend:
Type in all cases: functional, cell-based
[1] = tested on: A2780; experiment: Antiproliferative activity against human A2780 cells after 96 hrs by CellTiter-Glo luminescent cell viability assay; details: A2780, 96 h
[2] = tested on: DU-145; experiment: Antiproliferative activity against human DU145 cells after 96 hrs by CellTiter-Glo luminescent cell viability assay; details: DU-145, 96 h
[3] = tested on: BT-549; experiment: Antiproliferative activity against human BT549 cells after 96 hrs by CellTiter-Glo luminescent cell viability assay; details: BT-549, 96 h
[4] = tested on: HCC 2998; experiment: Antiproliferative activity against human HCC2998 cells after 96 hrs by CellTiter-Glo luminescent cell viability assay; details: HCC 2998, 96 h
[5] = tested on: NCI-H460; experiment: Antiproliferative activity against human NCI-H460 cells after 96 hrs by CellTiter-Glo luminescent cell viability assay; details: NCI-H460, 96 h

SMILES | IC50 [1] [µM] | IC50 [2] [µM] | IC50 [3] [µM] | IC50 [4] [µM] | IC50 [5] [µM]
C=C(CO)[C@H]1Cc2cc3c(cc2O1)OC[C@H]1c2cc4c(cc2O[C@@H]31)OCO4 | > 54.4 |  |  |  | 
C=C(C)[C@H]1Cc2cc3c(cc2O1)OC[C@H]1c2cc4c(cc2O[C@@H]31)OCO4 [EMOROIDOCARPAN] | 26.5 |  |  |  | 
COc1c(-c2ccc3c(c2)OCO3)c(=O)oc2c3c(ccc12)OC(C)(C)C=C3 [PONGAVILLEANINE] | 9.5 |  |  |  | 
C=C(C)[C@H]1Cc2c(ccc3c2O[C@@H]2COc4cc(OC)c(OC)cc4[C@]2(O)C3=O)O1 [ROTENOLONE] | 0.95 | 2.7 | 1.6 | 2.9 | 2
